Data reported in patent US20200360260A1, “TOPICAL COMPOSITION COMPRISING ANTIMICROBIAL LIPID” (Conopco, Inc., d/b/a UNILEVER, priority 2017, published 2020).

Assays:
Assay type in all cases: cell-based
Details in all cases: for combined effect with AMLs: in combination with AMLs
[1] = test system: Propionibacterium acnes (ATCC 6919); assay: ΣFIC assay against P. acnes
Protocol: (§1) Method: ΣFIC Assay Against M. Furfur, S. Aureus and P Acnes
Propionibacterium acnes (ATCC 6919) was inoculated from freezer into liquid Reinforced Clostridial Medium (RCM, HepoBio: HB0316) for 3 days (anaerobic conditions) growth at 37° C. The suspension containing the microbe was then diluted 10-times with RCM and incubated again under 37° C. for another 3 days. The inoculum was further diluted by RCM to get around 10^4 cells/ml.
(§2) Honokiol (Ex. Sigma) 50 mg/ml in DMSO (50,000 ppm); Magnolol (Ex. Sigma) 50 mg/ml in DMSO (50,000 ppm); Sapienic acid (Ex. Parchem, CAS# 17004-51-2) 100 mg/ml in 100% ethanol (100,000 ppm); D-Sphingosine (Ex. Sigma S7049) 5 mg/ml in 50% ethanol (5,000 ppm); D-erythro-Dihydrosphingosine (Ex. Sigma D3314) 5 mg/ml in 50% ethanol (5,000 ppm); Phytosphingosine (Ex. Evonik) 5 mg/m stock in 50% ethanol (5,000 ppm); Palmitoleic acid (Ex. Sigma 76169) 100 mg/ml in 100% ethanol (100,000 ppm).
(§3) The ΣFIC test was conducted based on the principle previously described in Hall M J, Middleton R F, & Westmacott D (1983), The fractional inhibitory concentration (FIC) index as a measure of synergy. Journal of Antimicrobial Chemotherapy 11(5):427-433. The procedure is as follows:
(§4) Twenty (20) μl of compound A (honokiol or magnolol as applicable to the test) and 20 μl of compound B (a selection of different AMLs as applicable to the test) were mixed in corresponding wells of a 96-well plate. An amount of 160 μl of microbial suspension was dispensed in each well and the broth medium as taken as a blank control for comparison of results. The total reaction volume in each well was 200 μl.
(§5) Thereafter the 96-well plates were incubated in an incubator. In accordance with the test protocols that were followed, M. furfur was incubated aerobically at 32° C. for 1 day, S. aureus was incubated aerobically at 37° C. for 1 day and P. acnes was incubated anaerobically at 37° C. for 4 days. Thereafter 20 μl alamar blue (0.1%) was dispensed in each well and the procedure of incubation (as abovementioned) was repeated. Finally, the change in colour of the indicator was monitored to check for visible signs of microbial growth or inhibition of the growth. If the colour changed to red it indicated growth (of microbes) and blue indicated no growth or inhibition of growth.
(§6) After all the observations were recorded and tabulated, the Fractional Inhibition Concentration (FIC) was calculated. The combination effect of inhibitory antimicrobials is widely explored using the concept of the Fractional Concentration (FC) and Fractional Inhibitory Concentration (FIC). This parameter is defined as follows:
(§7) ΣFIC=FIC (component 1)+FIC (component 2)
(§8) The final concentration of each ingredient in ppm (parts per million) after (10-fold dilution) was as follows. Each of these concentrations was tried out to determine the FIC value for (either of) honokiol or magnolol in combination with one of the AMLs.

S. aureus (ATCC 12600) = assay: ΣFIC assay against S. aureus
Protocol: as §1
(§9) M. furfur (CBS1878) was inoculated into Pityrosporum Broth (PB, solution A) and incubated in a shaking incubator at 32° C. for 2 days. The suspension containing the microbe was then diluted 10-times by PB and incubated again at 32° C. for another 2 days. The inoculum was further diluted by PB to get around 10^4 cells /ml. S. aureus (ATCC 12600) was inoculated into Tryptone Soya Broth (TSB, Oxoid: CM0129) and incubated in a shaking incubator at 37° C. for 1 day. The suspension containing the microbe was then diluted 10-times with TSB and incubated again at 37° C. for another 1 day. The inoculum was further diluted by TSB to get around 10^5 cells/ml.
as §2, §3, §4, §5, §6, §7, §8

M. furfur (CBS1878) = assay: ΣFIC assay against M. furfur
Protocol: as §1, §9, §2, §3, §4, §5, §6, §7, §8

Row | SMILES | The range of concentration of the ingredient (ppm) where the ΣFIC was less than 0.9: AML ([1]; in combination with honokiol) [ppm] | The range of concentration of the ingredient (ppm) where the ΣFIC was less than 0.9: AML ([1]; in combination with magnolol) [ppm] | The range of ratio of honokiol/AML (w/w) where ΣFIC was less than 0.9 [1] [w/w] | The range of ratio of magnolol/AML (w/w) where ΣFIC was less than 0.9 [1] [w/w] | The range of concentration of the ingredient (ppm) where the ΣFIC was less than 0.9: AML (S. aureus (ATCC 12600); in combination with honokiol) [ppm] | The range of concentration of the ingredient (ppm) where the ΣFIC was less than 0.9: AML (S. aureus (ATCC 12600); in combination with magnolol) [ppm] | The range of ratio of honokiol/AML (w/w) where ΣFIC was less than 0.9 (S. aureus (ATCC 12600)) [w/w] | The range of ratio of magnolol/AML (w/w) where ΣFIC was less than 0.9 (S. aureus (ATCC 12600)) [w/w] | The range of concentration of the ingredient (ppm) where the ΣFIC was less than 0.9: AML (M. furfur (CBS1878); in combination with honokiol) [ppm] | The range of concentration of the ingredient (ppm) where the ΣFIC was less than 0.9: AML (M. furfur (CBS1878); in combination with magnolol) [ppm] | The range of ratio of honokiol/AML (w/w) where ΣFIC was less than 0.9 (M. furfur (CBS1878)) [w/w] | The range of ratio of magnolol/AML (w/w) where ΣFIC was less than 0.9 (M. furfur (CBS1878)) [w/w] | combined effect with AMLs [1] | combined effect with AMLs (S. aureus (ATCC 12600)) | combined effect with AMLs (M. furfur (CBS1878))
1 | CCCCCCCCCCCCCCC[C@@H](O)[C@@H](N)CO [dihydrosphingosine, D-erythro-Dihydrosphingosine] | 0.63 to 2.50 | 0.63 to 2.50 | 0.2 to 6.5 | 0.7 to 6.5 | 0.63 to 2.50 | 0.63 to 1.25 | 0.8 to 12.5 | 0.4 to 12.5 | 31.25 to 125 | 15.63 to 125 | 5 to 40 | 5 to 80 |  |  | 
2 | C=CCc1ccc(O)c(-c2ccc(O)c(CC=C)c2)c1 [honokiol, Honokiol] |  |  |  |  |  |  |  |  |  |  |  |  | synergistic effect | synergistic effect | synergistic effect
3 | C=CCc1ccc(O)c(-c2cc(CC=C)ccc2O)c1 [magnolol, Magnolol] |  |  |  |  |  |  |  |  |  |  |  |  | synergistic effect | synergistic effect | synergistic effect
4 | CCCCCC/C=C\CCCCCCCC(=O)O [palmitoleic acid, Palmitoleic acid] | 1.95 to 7.81 | 1.95 to 7.81 | 0.06 to 1 | 0.1 to 4 | 3.91 to 62.5 | 3.91 to 52.5 | 0.008 to 2 | 0.008 to 2 | 625 to 5000 | 625 to 5000 | 0.06 to 2 | 0.03 to 2 |  |  | 
5 | CCCCCCCCCCCCCC[C@@H](O)[C@@H](O)[C@@H](N)CO [phytosphingosine, Phytosphingosine] | 1.25 to 5.00 | 0.63 to 5.00 | 0.2 to 3.2 | 0.4 to 12.5 | 0.63 to 5.00 | 0.63 to 2.50 | 0.4 to 12.5 | 0.2 to 12.5 | 15.63 to 62.5 | 3.91 to 62.5 | 10 to 80 | 10 to 320 |  |  | 
6 | CCCCCCCCC/C=C\CCCCC(=O)O [sapienic acid, Sapienic acid] | 1.95 to 3.91 | 1.95 to 3.91 | 0.25 to 1 | 0.25 to 1 | 3.91 to 62.5 | 1.95 to 31.25 | 0.008 to 2 | 0.01 to 4 | 625 to 2500 | 625 to 5000 | 0.25 to 1 | 0.06 to 2 |  |  | 
7 | CCCCCCCCCCCCC/C=C/[C@@H](O)[C@@H](N)CO [sphingosine, D-Sphingosine] | 0.31 to 1.25 | 0.31 to 1.25 | 0.7 to 13 | 1.5 to 13 | 0.31 to 1.25 | 0.31 to 0.63 | 0.8 to 25 | 1.5 to 25 | 31.25 to 250 | 31.25 to 125 | 1.25 to 40 | 5 to 40 |  |  | 
